Test results reported in patent publication US10646600B2, “HER2 polypeptides useful for imaging and monitoring tumors and cancers” (GE HEALTHCARE LIMITED, priority 2013, dated 2020).
Entries after “also recorded” stand apart in the source; their conditions may differ.

Legend:
A431 tumors = assay: Fluorescent GE-226 localization versus DAKO HercepTest, A431 tumors; assay type: in vivo, mice; settings: 15 mg/kg i.v., tumors excised two h post injection; HER2 negative
Procedure: (§1) The bilateral A431/NCI-N87 model was established by s.c. injection of A431 (1×10^7 cells) and NCI-N87 cells (2×10^6 cells) in 100 μL PBS mixed 1:1 with Matrigel™ in the lower flanks of 4-6 week old male CD-1 nude mice (Charles River Laboratories, Wilmington, Mass.). Tumor volumes were monitored frequently as described above and when they reached 50-100 mm^3 (approximately 3-4 weeks), mice were administered a mixture of Hoechst (˜20 mg/kg) and fluorescein-conjugated-GE226[SEQ ID NO 1] (˜15 mg/kg) in 100 μL PBS i.v. through the tail vein. The tumors were excised 120 minutes post injection, immediately fixed in formalin and embedded in paraffin. Sections were sliced and stored in the dark at −80° C. Immunofluorescent images were acquired at 400× magnification. Adjacent tumor sections were immunohistochemically stained with HercepTest™.
(§2) HER2 protein expression in excised tumors was assessed using the HercepTest™ (Dako, Ely, United Kingdom, Cat. Nr: K5204) according to manufacturer's instructions.
(§3) To examine cellular localization, GE-226[SEQ ID NO 1] was labeled with fluorescein and compared localization and fluorescent intensity in tumor sections with FDA approved DAKO HercepTest™. In contrast to PET experiments, normalization to injected dose is not possible with fluorescent compounds. To eliminate inter-subject variability, experiments were performed in bilateral tumor-bearing mice. […]

NCI-N87 tumors = assay: Fluorescent GE-226 localization versus DAKO HercepTest, NCI-N87 tumors; assay type: in vivo, mice; settings: 15 mg/kg i.v., tumors excised two h post injection
Procedure: as §1, §2, §3

HER2 [1] = assay: HER2 expression in SKOV-3 tumors after NVP-AUY922; assay type: in vivo, mice; settings: 3 doses of 50 mg/kg NVP-AUY922 versus vehicle
Procedure: For blocking studies, SKOV-3 xenograft bearing mice were administered 500 μg (˜25 mg/kg) cold [^19F]GE-226[SEQ ID NO 1] intravenously (i.v.) through the tail vain 20 minutes before administration of radiotracer. […] To investigate response to HSP90 inhibition, SKOV-3 xenograft-bearing mice were treated with 50 mg/kg NVP-AUY922 or equivalent volume of vehicle (˜5 μL/g body weight; 10% DMSO and 5% Tween-20 in PBS) q.d. i.p. for three days. 24 h after the last treatment, animals were used for PET imaging.
Excised and snap frozen tumor tissue samples were homogenized in RIPA lysis buffer (Sigma-Aldrich) with the PreCellys 24 homogenizer and CK14 beads-containing tubes (two cycles of 25 seconds at 6500 rpm). HER2 expression was determined by ELISA (Calbiochem, Darmstadt, Germany, c-ErbB2/c-Neu Rapid Format ELISA Ki, Cat. Nr: QIA10-1EA) according to manufacturer's instructions.

SKOV-3 cells = assay: In vitro uptake assay in SKOV-3 cells (blocking, siRNA, drug treatment, specific activity); assay type: cell-based, human; settings: NVP-AUY922 for 24 h
Procedure: For siRNA-mediated HER2 knockdown, SKOV-3 cells were transfected with 25 nM scramble control (SCR; Dharmacon, Lafayette, Colo., ON-TARGETplus Non-targeting Pool, Cat. Nr: D-001810-10-05) or HER2-targeting siRNA (Invitrogen ERBB2 Silencer® Select Validated siRNA; Cat. Nr: 4457298) by reverse wet transfection with Lipofectamine RNAiMAX (Invitrogen) according to manufacturer's instructions. 3×10^5 cells were seeded in 12-well plates 48 h prior to uptake experiment. Target knockdown was verified by western blotting on cells that were transfected in parallel.
For all uptake studies in response to drug treatment, 2.5×10^5 SKOV-3 cells were seeded in complete medium 48 h prior to uptake experiments.
For baseline uptake in HER2 positive or negative lineages, 3×10^5 cells were seeded in complete media in 12-well plates (Corning, Tewksbury Mass.) and allowed to recover overnight. Cells were washed twice with serum-free medium and pulsed with 370 KBq in 500 μL serum-free medium for one h. For blocking studies, cells were co-incubated with tracer and 0.5 mg/mL cold unlabeled [^19F]GE-226[SEQ ID NO 1].
Cells were washed with PBS, trypsinized, neutralized with complete medium and centrifuged. The pellet was washed three times with PBS and lysed in 120 μL RIPA buffer (Sigma-Aldrich). The radioactivity of 100 μL lysate was counted on a Packard Cobra II gamma counter (Perkin Elmer). Radioactivity was normalized to applied radioactivity and protein content, which was determined for each sample by BCA assay (Pierce, Rockford, Ill.).

HER2 [2] = assay: Western blot of HER2 protein expression in drug-treated SKOV-3 cells; assay type: cell-based, human; settings: NVP-AUY922 for 24 h, compared to untreated controls
Procedure: For all uptake studies in response to drug treatment, 2.5×10^5 SKOV-3 cells were seeded in complete medium 48 h prior to uptake experiments. […] Cells were lysed in RIPA buffer containing protease and phosphatase inhibitors (from Sigma-Aldrich). Equal amounts of protein (20 μg) were resolved on 4-15% mini-protean TGX gels (Biorad, Hercules, Calif.) and transferred to PVDF membranes (Trans-Blot Turbo Transfer Packs, Biorad). Membranes were blocked for 1 h in 5% milk in Tris-buffered saline containing 0.1% v/v tween (TBST, Cell Signaling, Danvers, Mass.) and incubated with antibodies against HER2 (Cell Signal, Cat. Nr: 2165 for visualization of p95HER2 and full-length HER2 bands and Cat. Nr: 4290 for blots where only full-length HER2 is shown), EGFR (Cell Signal, Cat. Nr: 4267) or (3-actin (Abcam, Cambridge, United Kingdom, Cat. Nr: ab6276) overnight at 4° C. Secondary HRP-conjugated mouse and rabbit antibodies (Santa Cruz Biotechnology, Dallas, Tex.) were applied for one h at room temperature. Signals were visualized using Amersham ECL™ Western Blotting Detection Reagent (GE Healthcare) and Amersham Hyper-film (GE Healthcare).

SKOV-3 xenografts = assay: PET-CT imaging and kinetic modeling, SKOV-3 xenografts; assay type: in vivo, mice
Procedure: […] […] To investigate response to HSP90 inhibition, SKOV-3 xenograft-bearing mice were treated with 50 mg/kg NVP-AUY922 or equivalent volume of vehicle (˜5 μL/g body weight; 10% DMSO and 5% Tween-20 in PBS) q.d. i.p. for three days. 24 h after the last treatment, animals were used for PET imaging.
Mice were anesthetized through isoflurane inhalation and scanned on a dedicated small animal PET-CT scanner (Siemens Multimodality Inveon, Erlangen, Germany). Low dose CT scans were first acquired (80 kVp, 0.5 mA, 220 degree rotation, 600 ms per degree exposure time, 80 μm reconstruction pixel size) for PET attenuation correction and to obtain an anatomical reference. PET images were acquired following a bolus i.v. injection of approximately 3.7 MBq [^18F]GE-226 in the tail vein. Dynamic emission scans were acquired in list mode format over 60 minutes. The acquired data were sorted into 0.5-mm sinogram bins and 19 time frames for image reconstruction by filtered back projection (4×15 seconds and 4×60 seconds followed by 11×300 seconds). The Siemens Inveon Research Workplace software was used for visualization of radiotracer uptake. 30 to 60-minute cumulative images of the dynamic data were employed to define 3-dimensional (3D) regions of interest (ROI). Arterial input function was estimated by drawing ROIs over the center of the heart cavity using 0.25 to 2 minutes of cumulative images. The count densities were averaged for all ROIs at each time point to obtain time versus radioactivity curves (TAC). Tumor TACs were normalized to injected dose measured by a VDC-304 dose calibrator (Veenstra Instruments, Joure, Netherlands) and normalized uptake was expressed as percentage injected dose per mL tissue (NUV; % ID/mL). Normalized uptake of radiotracer at 60 minutes (NUV60) was used for comparisons. For qualitative image visualization, cumulative images of the dynamic data (30 to 60 min) were also iteratively reconstructed (OSEM3D).
Kinetic analysis of PET data was performed applying a standard two-tissue irreversible compartmental model to fit each tumor TAC with the corresponding image-derived plasma TAC as input function (IF) to estimate K1 (mL/cm^3/min), k2, (1/min) and k3 (1/min) and the blood vascular component Vb (mL blood/mL tissue; unitless). The irreversible uptake rate Ki (mL/cm^3/min) was computed as K1×k3/(k2+k3). To estimate the kinetic parameters the measured tumor TAC (tTAC) was modeled as tTAC(t)=(1−Vb)h(t)⊗IF(t)+VbIF(t) with h(t) indicating the unknown tissue impulse function and ⊗ the convolution operator. The parameter vector p=[K1, k2, k3, Vb] was estimated with the standard Weighted Non-Linear Least Squares (WNLLS) by minimizing the Weighted Residual Sum of Squares (WRSS) function

HER2 [3] = settings: report by Smith-Jones and co-workers (36); cited from earlier work

fluorescein-GE-226: GE-226[SEQ ID NO 1] labeled with fluorescein
fluorescent staining (A431 tumors): negligible
localization of fluorescent staining versus HER2 (NCI-N87 tumors): co-localized with regions that are HER2 positive
localization of fluorescent staining versus HER2 (NCI-N87 tumors; listed as fluorescently labeled tracer analogue): co-localized with HER2 expression at the cellular level

CCNC(=O)c1noc(-c2cc(C(C)C)c(O)cc2O)c1-c1ccc(CN2CCOCC2)cc1 [NVP-AUY922, reference compound]
effect on HER2 expression in tumors (HER2 [1]): reduced HER2 expression
effect on tracer uptake in SKOV-3 cells (SKOV-3 cells): reduced tracer uptake
effect on HER2 protein expression (HER2 [2]): dose-dependent HER2 degradation; also recorded: dose-dependent decrease of HER2 protein expression
effect on tracer uptake in vivo (SKOV-3 xenografts; 3 doses of 50 mg/kg NVP-AUY922): decreased tracer uptake
AUC0_60 of [18F]GE-226 after drug (SKOV-3 xenografts; three daily doses of 50 mg/kg NVP-AUY922, vehicle 618.4±90.1, P=0.043): 446.7±42.8 % ID/mL*min
NUV60 of [18F]GE-226 after drug (SKOV-3 xenografts; three daily doses of 50 mg/kg NVP-AUY922 i.p., vehicle 13.5±2.1): 9.0±0.9 % ID/mL

C=CCNC1=C2C[C@@H](C)C[C@H](OC)[C@H](O)[C@@H](C)/C=C(\C)[C@H](OC(N)=O)[C@@H](OC)/C=C\C=C(/C)C(=O)NC(=CC1=O)C2=O [17-allylaminogeldanamycin]
effect on HER2 (HER2 [3]): degrades HER2
